Laboratory results as given in the NIST ThermoML archive (doi:10.1016/j.jct.2012.06.031).
± gives the expanded uncertainty stated by the source.

Experiments:
[1] = 101 kPa, Liquid; for viscosity: Concentric cylinders viscometry; for mass density: Vibrating tube method
[2] = refractive index (Na D-line) (dimensionless); conditions: 101.33 kPa, Liquid, Standard Abbe refractometry
[3] = xn = mol fraction of the nth substance listed; conditions: 101 kPa, Liquid; for viscosity: Concentric cylinders viscometry; for mass density: Vibrating tube method
[4] = refractive index (Na D-line) (dimensionless); xn = mol fraction of the nth substance listed; conditions: 101 kPa, Liquid, Standard Abbe refractometry

CC(O)CO (stereo unspecified) [1,2-propanediol]
Conditions	mass density, [1] [kg/m3]	refractive index, [2]	viscosity, [1] [mPa·s]
288.15 K	1040.08 ± 0.14	1.43411 ± 0.00033	81.21 ± 0.6
293.15 K	1036.46 ± 0.14	1.43247 ± 0.00033	58.75 ± 0.25
298.15 K	1032.8 ± 0.14	1.43081 ± 0.00033	43.44 ± 0.2
303.15 K	1029.09 ± 0.14	1.42915 ± 0.00033	32.75 ± 0.15
308.15 K	1025.34 ± 0.13	1.42751 ± 0.00033	25.16 ± 0.12
313.15 K	1021.55 ± 0.13	1.42581 ± 0.00033	19.65 ± 0.092
318.15 K	1017.73 ± 0.13	1.42407 ± 0.00033	15.58 ± 0.071
323.15 K	1013.86 ± 0.13	1.4223 ± 0.00033	12.55 ± 0.058

OCC(O)CO [glycerol]
Conditions	mass density, [1] [kg/m3]	refractive index, [2]	viscosity, [1] [mPa·s]
288.15 K	1264.08 ± 0.22	1.47552 ± 0.00033	2298.3 ± 120
293.15 K	1261.03 ± 0.22	1.47427 ± 0.00033	1425.1 ± 65
298.15 K	1257.94 ± 0.22	1.47301 ± 0.00033	911.98 ± 36
303.15 K	1254.83 ± 0.22	1.47175 ± 0.00033	600.83 ± 20
308.15 K	1251.68 ± 0.21	1.47048 ± 0.00033	406.93 ± 12
313.15 K	1248.48 ± 0.21	1.4692 ± 0.00033	282.61 ± 6.7
318.15 K	1245.24 ± 0.21	1.46791 ± 0.00033	201.03 ± 3.9
323.15 K	1242.08 ± 0.21	1.46674 ± 0.00033	147.15 ± 2.2

OCC(O)CO [glycerol] + c1ccncc1
x2 = 0
Conditions	mass density, [3] [kg/m3]	refractive index, [4]	viscosity, [3] [mPa·s]
288.15 K	1264.08 ± 0.22	1.47552 ± 0.00033	2298.3 ± 120
293.15 K	1261.03 ± 0.22	1.47427 ± 0.00033	1425.1 ± 65
298.15 K	1257.94 ± 0.22	1.47301 ± 0.00033	911.98 ± 36
303.15 K	1254.83 ± 0.22	1.47175 ± 0.00033	600.83 ± 20
308.15 K	1251.68 ± 0.21	1.47048 ± 0.00033	406.93 ± 12
313.15 K	1248.48 ± 0.21	1.4692 ± 0.00033	282.61 ± 6.7
318.15 K	1245.24 ± 0.21	1.46791 ± 0.00033	201.03 ± 3.9
323.15 K	1242.08 ± 0.21	1.46674 ± 0.00033	147.15 ± 2.2

OCCCO [propan-1,3-diol]
Conditions	mass density, [1] [kg/m3]	refractive index, [2]	viscosity, [1] [mPa·s]
288.15 K	1056.12 ± 0.95	1.44089 ± 0.00051	66.53 ± 0.72
293.15 K	1053.02 ± 0.95	1.43947 ± 0.00051	51.91 ± 0.53
298.15 K	1049.91 ± 0.94	1.43805 ± 0.00051	41.04 ± 0.44
303.15 K	1046.79 ± 0.93	1.43665 ± 0.00051	32.84 ± 0.35
308.15 K	1043.64 ± 0.93	1.43526 ± 0.00051	26.58 ± 0.28
313.15 K	1040.49 ± 0.92	1.43387 ± 0.00051	21.74 ± 0.23
318.15 K	1037.31 ± 0.91	1.43244 ± 0.00051	17.95 ± 0.19
323.15 K	1034.12 ± 0.91	1.43099 ± 0.00051	14.96 ± 0.16

CCCO [propan-1-ol]
Conditions	mass density, [1] [kg/m3]	refractive index, [2]	viscosity, [1] [mPa·s]
288.15 K	807.947 ± 0.15	1.3878 ± 0.00031	2.514 ± 0.013
293.15 K	803.963 ± 0.15	1.38576 ± 0.00031	2.208 ± 0.012
298.15 K	799.953 ± 0.15	1.38369 ± 0.00031	1.95 ± 0.011
303.15 K	795.915 ± 0.15	1.38162 ± 0.00031	1.727 ± 0.011
308.15 K	791.84 ± 0.15	1.37918 ± 0.00031	1.542 ± 0.01
313.15 K	787.721 ± 0.15	1.37695 ± 0.00031	1.378 ± 0.0097
318.15 K	783.553 ± 0.15	1.37469 ± 0.00031	1.236 ± 0.0094
323.15 K	779.334 ± 0.15	1.37231 ± 0.00031	1.124 ± 0.0091

CCCO [propan-1-ol] + c1ccncc1
x2 = 0
Conditions	mass density, [3] [kg/m3]	refractive index, [4]	viscosity, [3] [mPa·s]
288.15 K	807.947 ± 0.15	1.3878 ± 0.00031	2.514 ± 0.013
293.15 K	803.963 ± 0.15	1.38576 ± 0.00031	2.208 ± 0.012
298.15 K	799.953 ± 0.15	1.38369 ± 0.00031	1.95 ± 0.011
303.15 K	795.915 ± 0.15	1.38162 ± 0.00031	1.727 ± 0.011
308.15 K	791.84 ± 0.15	1.37918 ± 0.00031	1.542 ± 0.01
313.15 K	787.721 ± 0.15	1.37695 ± 0.00031	1.378 ± 0.0097
318.15 K	783.553 ± 0.15	1.37469 ± 0.00031	1.236 ± 0.0094
323.15 K	779.334 ± 0.15	1.37231 ± 0.00031	1.124 ± 0.0091

c1ccncc1 [pyridine]
Conditions	mass density, [1] [kg/m3]	refractive index, [2]	viscosity, [1] [mPa·s]
288.15 K	988.061 ± 0.12	1.51184 ± 0.00031	1.03 ± 0.0089
293.15 K	983.038 ± 0.12	1.509 ± 0.00031	0.9588 ± 0.0087
298.15 K	978.006 ± 0.12	1.50616 ± 0.00031	0.8943 ± 0.0086
303.15 K	972.967 ± 0.12	1.50331 ± 0.00031	0.8355 ± 0.0085
308.15 K	967.913 ± 0.12	1.50048 ± 0.00031	0.7837 ± 0.0084
313.15 K	962.849 ± 0.12	1.49769 ± 0.00031	0.7354 ± 0.0083
318.15 K	957.769 ± 0.12	1.49493 ± 0.00031	0.6912 ± 0.0082
323.15 K	952.673 ± 0.12	1.49219 ± 0.00031	0.6507 ± 0.0081

c1ccncc1 [pyridine] + CC(O)CO
x1 = 1
Conditions	mass density, [3] [kg/m3]	refractive index, [4]	viscosity, [3] [mPa·s]
288.15 K	988.061 ± 0.12	1.51184 ± 0.00031	1.03 ± 0.0089
293.15 K	983.038 ± 0.12	1.509 ± 0.00031	0.9588 ± 0.0087
298.15 K	978.006 ± 0.12	1.50616 ± 0.00031	0.8943 ± 0.0086
303.15 K	972.967 ± 0.12	1.50331 ± 0.00031	0.8355 ± 0.0085
308.15 K	967.913 ± 0.12	1.50048 ± 0.00031	0.7837 ± 0.0084
313.15 K	962.849 ± 0.12	1.49769 ± 0.00031	0.7354 ± 0.0083
318.15 K	957.769 ± 0.12	1.49493 ± 0.00031	0.6912 ± 0.0082
323.15 K	952.673 ± 0.12	1.49219 ± 0.00031	0.6507 ± 0.0081

c1ccncc1 [pyridine] + OCCCO
x1 = 1
Conditions	mass density, [3] [kg/m3]	refractive index, [4]	viscosity, [3] [mPa·s]
288.15 K	988.061 ± 0.12	1.51184 ± 0.00031	1.03 ± 0.0089
293.15 K	983.038 ± 0.12	1.509 ± 0.00031	0.9588 ± 0.0087
298.15 K	978.006 ± 0.12	1.50616 ± 0.00031	0.8943 ± 0.0086
303.15 K	972.967 ± 0.12	1.50331 ± 0.00031	0.8355 ± 0.0085
308.15 K	967.913 ± 0.12	1.50048 ± 0.00031	0.7837 ± 0.0084
313.15 K	962.849 ± 0.12	1.49769 ± 0.00031	0.7354 ± 0.0083
318.15 K	957.769 ± 0.12	1.49493 ± 0.00031	0.6912 ± 0.0082
323.15 K	952.673 ± 0.12	1.49219 ± 0.00031	0.6507 ± 0.0081
